System: bladder
Test: in vivo cystometry (CMG) in urethane anesthetized rats, PGE2 model of bladder dysfunction
Parameters: species or system female Wistar rats
Details: intravesical infusion of PGE2 (100 μM), no stimulation, vs control rats (FIG. 5A)
Method: In the following examples, an accepted animal model of bladder dysfunction was used: the PGE2 (prostoglandin E2) model, in which installation of PGE2 into rats induces a hyperactive bladder response. In addition, a cat model of bladder dysfunction was used. […] Acute experiments were conducted in urethane (1.2 g/kg, SC) anesthetized female Wistar rats using in vivo cystometry (CMG). A PE-90 catheter was placed to measure bladder pressure and for intravesical infusion of saline and PGE2 (100 μM). Bipolar electrodes were placed on the external urethral sphincter (EUS) to measure electromyographic (EMG) activity and a bipolar nerve cuff electrode was placed on the sensory branch of the pudendal nerve for stimulation. In a subset of trials after PGE2 infusion, electrical stimulation of the sensory branch of the pudendal nerve was delivered at different amplitudes (0.5-10× EUS reflex threshold, T) and frequencies (1-50 Hz). T may be determined as follows: a low frequency electrical signal, typically 1 Hz, is applied and the intensity of stimulation is increased (either by increasing the voltage or the current of the signal, preferably the current) until the pudendal nerve stimulation pulse produces a reflex EMG response in the EUS.

Question: Which “changes in bladder capacity” value does the source give for `CCCCC[C@H](O)/C=C/[C@H]1[C@H](O)CC(=O)[C@@H]1C/C=C\CCCC(=O)O` [PGE2, prostoglandin E2] here?
Answer: The value was “reduces bladder capacity”.

From patent US12329967B2, “State-dependent peripheral neuromodulation to treat bladder dysfunction” (Duke University, priority 2015, dated 2025)
